Measured values taken from US20050032646A1, “Agents for the regulation of gametophytic self-incompatibility and a control method for the breakdown of gametophytic self-incompatibility using the agents” (priority 2002, published 2005).

Tests used:
Hongro apple = assay: Breakdown of the self-incompatibility in Hongro apple (self-pollination rate, field); type: in vivo; details: 25 days after the treatment
Description: In the field application experiment, Hongro apple (the Rosaceae) which has a very low self-pollination rate (<5%) was isolated single-genetically by covering up whole plants with a fine-meshed net to exclude any pollinating insects. The agent of the present invention was treated enough to get-wet flowers at various concentrations with a micro-spray at 9:00-11:00 AM. The target of the agent was the first-blooming primary apple flower. The self-pollination rate was investigated 25 days after the treatment and compared with no treatment and artificial cross-pollination.

[1] = tested on: style-specific S RNase of Fuji apple; assay: Inhibition of the activity of a style-specific S RNase by the agents; type: biochemical; details: for OD (2.0 mM): optical density at 260 nm (A260), agent 2.0 mM, no treatment 1.10; for inhibiting effect for a style-specific S RNase: enzyme assay, result in words
Description: Inhibition of S RNase activity by an agent of the present invention was measured as follows: The standard solution of 500 μL of 10 mM sodium phosphate (pH 7.0) with an agent (2.0 mM), and 500 μL of torula yeast rRNA (5 mg/mL) was pre-incubated for 10 min at 37° C. To the substrate solution, the 20 μL of the style-specific S RNase (200 ng) of Fuji apple was added, then the solution was incubated for 30 min at 37° C. A fraction of 200 μL was collected and 40 μL of stop buffer (ice-cold 25% HCIO4, 0.75% uranyl acetate) was added, then mixed and centrifuged at 12,000 rpm for 5 min. And 50 μL of the supernatant was diluted with 950 μL of dd H2O, then the solution was centrifuged and measured the optical density at 260 nm (A260) (Singh A. et al., Plant Physilolgy, 96: 61-68,1991).

Molecule	OD (2.0 mM) [1]	also measured
COCCOCCOCC(=O)[O-].COCCOCCOCC(=O)[O-].[Zn+2] [Zn(II) 2-{2-(2-methoxyethoxy)ethoxy} acetate]	–	self-pollination rate (Hongro apple; concentration 0.01 mM): >10%; self-pollination rate (Hongro apple; concentration 0.03 mM): >30%; self-pollination rate (Hongro apple; concentration 0.10 mM): >50%; self-pollination rate (Hongro apple; concentration 0.30 mM): >50%; self-pollination rate (Hongro apple; concentration 1.0 mM): >50%
CCCOC(C)C(=O)[O-].CCCOC(C)C(=O)[O-].[Zn+2] (stereo not shown) [Zn(II) 2-propoxypropionate]	0.72	–
COCC(=O)[O-].COCC(=O)[O-].[Zn+2] [Zn(II) methoxyacetate]	0.71	–
Ce2SO4 [reference compound]	–	inhibiting effect for a style-specific S RNase [1]: didn't show any positive inhibiting effect
COC(C)C(=O)[O-].COC(C)C(=O)[O-].[Zn+2] (stereo not shown) [Zn(II) 2-methoxypropionate]	0.73	–
CCCOCC(=O)[O-].CCCOCC(=O)[O-].[Cu+2] [Cu(II) propoxyacetate]	0.73	–
O=S(=O)([O-])[O-].[Li+].[Li+] [Li2SO4, reference compound]	–	inhibiting effect for a style-specific S RNase [1]: didn't show any positive inhibiting effect
O=S(=O)([O-])[O-].[Ca+2] [CaSO4, reference compound]	–	inhibiting effect for a style-specific S RNase [1]: didn't show any positive inhibiting effect
CCCC(=O)[O-].CCCC(=O)[O-].[Cu+2] [Cu(II) Butyrate]	0.69	–
CCCOCCOCCOCC(=O)[O-].CCCOCCOCCOCC(=O)[O-].[Cu+2] [Cu(II) 2-(2-propoxyethoxy)ethoxyacetate, Cu(II) 2-(2-propoxyethoxy) ethoxyacetate]	0.67	–
CCOCCOc1ccc(S(=O)(=O)[O-])cc1.CCOCCOc1ccc(S(=O)(=O)[O-])cc1.[Cu+2] [Cu(II) 4-(2-ethoxyethoxy) benzene sulfonate]	0.72	–
O=S(=O)([O-])c1ccccc1.O=S(=O)([O-])c1ccccc1.[Zn+2] [Zn(II) Benzene sulfonate]	0.74	–
COCCOC(C)C(=O)[O-].COCCOC(C)C(=O)[O-].[Zn+2] (stereo not shown) [Zn(II) 2-(2-methoxyethoxy)propionate, Zn(II) 2-(2-methoxyethoxy) propionate]	0.61	–
COCCOCCOCCOCC(=O)[O-].COCCOCCOCCOCC(=O)[O-].[Cu+2] [Cu(II) 2-{2-(2-methoxyethoxy)ethoxy}ethoxyacetate]	0.66	–
COCCOC(C)C(=O)[O-].COCCOC(C)C(=O)[O-].[Cu+2] (stereo not shown) [Cu(II) 2-(2-methoxyethoxy)propionate, Cu(II) 2-(2-methoxyethoxy) propionate]	0.64	–
COCCOCC(=O)[O-].COCCOCC(=O)[O-].[Cu+2] [Cu(II) 2-(2-methoxyethoxy) acetate]	–	self-pollination rate (Hongro apple; concentration 0.01 mM): >10%; self-pollination rate (Hongro apple; concentration 0.03 mM): >30%; self-pollination rate (Hongro apple; concentration 0.10 mM): >50%; self-pollination rate (Hongro apple; concentration 0.30 mM): >50%; self-pollination rate (Hongro apple; concentration 1.0 mM): >50%
COCCOCCOC(C)C(=O)[O-].COCCOCCOC(C)C(=O)[O-].[Zn+2] (stereo not shown) [Zn(II) 2-{2-(2-methoxyethoxy)ethoxy}propionate]	0.62	–
C=C(C)C(=O)[O-].C=C(C)C(=O)[O-].[Zn+2] [Zn(II) metacrylate]	0.70	–
O=S(=O)([O-])[O-].[K+].[K+] [K2SO4, reference compound]	–	inhibiting effect for a style-specific S RNase [1]: didn't show any positive inhibiting effect
CC(=O)[O-].CC(=O)[O-].[Zn+2] [Zn(II) Acetate]	0.71	–
COCCOCCOc1ccc(S(=O)(=O)[O-])cc1.COCCOCCOc1ccc(S(=O)(=O)[O-])cc1.[Zn+2] [Zn(II) 4-{2-(2-methoxyethoxy)ethoxy}benzene sulfonate]	0.68	–
CC(=O)[O-].CC(=O)[O-].[Cu+2] [Cu(II) Acetate]	0.70	–
O=C[O-].O=C[O-].[Cu+2] [Cu(Il) Formate]	0.74	–

Molecule	OD (2.0 mM) [1]	also measured
CCOCC(=O)[O-].CCOCC(=O)[O-].[Zn+2] [Zn(II) ethoxyacetate]	0.73	–
O=C[O-].O=C[O-].[Zn+2] [Zn(II) Formate]	0.75	–
CCOCC(=O)[O-].CCOCC(=O)[O-].[Cu+2] [Cu(II) ethoxyacetate]	0.72	–
C=CC(=O)[O-].C=CC(=O)[O-].[Cu+2] [Cu(II) Acrylate]	0.69	–
CCOCCOCC(=O)[O-].CCOCCOCC(=O)[O-].[Zn+2] [Zn(II) 2-ethoxy ethoxy acetate]	–	self-pollination rate (Hongro apple; concentration 0.01 mM): >5%; self-pollination rate (Hongro apple; concentration 0.03 mM): >20%; self-pollination rate (Hongro apple; concentration 0.10 mM): >50%; self-pollination rate (Hongro apple; concentration 0.30 mM): >60%; self-pollination rate (Hongro apple; concentration 1.0 mM): >60%
CCCOCC(=O)[O-].CCCOCC(=O)[O-].[Zn+2] [Zn(II) propoxyacetate]	0.75	–
COCCOCCOCCOCC(=O)[O-].COCCOCCOCCOCC(=O)[O-].[Zn+2] [Zn(II) 2-{2-(2-methoxyethoxy)ethoxy} ethoxyacetate]	0.67	–
COCCOCCOc1ccc(S(=O)(=O)[O-])cc1.COCCOCCOc1ccc(S(=O)(=O)[O-])cc1.[Cu+2] [Cu(II) 4-{2-(2-methoxyethoxy)ethoxy} benzene sulfonate]	0.68	–
COC(C)C(=O)[O-].COC(C)C(=O)[O-].[Cu+2] (stereo not shown) [Cu(II) 2-methoxypropionate]	0.72	–
Cc1ccc(S(=O)(=O)[O-])cc1.Cc1ccc(S(=O)(=O)[O-])cc1.[Zn+2] [Zn(II) p-toluene sulfonate]	0.72	–
C[C@H](O)C(=O)O.C[C@H](O)C(=O)O.[Zn] [Zn(II) L-lactate]	0.73	–
COCCOCCOCC(=O)[O-].COCCOCCOCC(=O)[O-].[Cu+2] [Cu(II) 2-{2-(2-methoxyethoxy)ethoxy} acetate]	–	self-pollination rate (Hongro apple; concentration 0.01 mM): >10%; self-pollination rate (Hongro apple; concentration 0.03 mM): >20%; self-pollination rate (Hongro apple; concentration 0.10 mM): >50%; self-pollination rate (Hongro apple; concentration 0.30 mM): >50%; self-pollination rate (Hongro apple; concentration 1.0 mM): >50%
CCCOC(C)C(=O)[O-].CCCOC(C)C(=O)[O-].[Cu+2] (stereo not shown) [Cu(II) 2-propoxypropionate]	0.72	–
O=S(=O)([O-])[O-].[Na+].[Na+] [Na2SO4, reference compound]	–	inhibiting effect for a style-specific S RNase [1]: didn't show any positive inhibiting effect
COCC(=O)[O-].COCC(=O)[O-].[Cu+2] [Cu(II) methoxyacetate]	0.72	–
O=S(=O)([O-])c1ccccc1.O=S(=O)([O-])c1ccccc1.[Cu+2] [Cu(II) Benzene sulfonate]	0.72	–
Cc1ccc(S(=O)(=O)[O-])cc1.Cc1ccc(S(=O)(=O)[O-])cc1.[Cu+2] [Cu(II) p-toluene sulfonate]	0.72	–
CCCC(=O)[O-].CCCC(=O)[O-].[Zn+2] [Zn(II) Butyrate]	0.68	–
COCCOCCOC(C)C(=O)[O-].COCCOCCOC(C)C(=O)[O-].[Cu+2] (stereo not shown) [Cu(II) 2-{2-(2-methoxyethoxy)ethoxy} propionate]	0.61	–
C[C@H](O)C(=O)[O-].C[C@H](O)C(=O)[O-].[Cu+2] [Cu(II) L-lactate]	0.72	–
CCCOCCOCCOCC(=O)[O-].CCCOCCOCCOCC(=O)[O-].[Zn+2] [Zn(II) 2-(2-propoxyethoxy)ethoxyacetate, Zn(II) 2-(2-propoxyethoxy) ethoxyacetate]	0.69	–
CCOCCOc1ccc(S(=O)(=O)[O-])cc1.CCOCCOc1ccc(S(=O)(=O)[O-])cc1.[Zn+2] [Zn(II) 4-(2-ethoxyethoxy) benzene sulfonate]	0.72	–
